From patent US5175168A, “Intermediates for 1,2-dideoxy-2-fluoronojirimycin” (Monsanto Company, priority 1991, dated 1992)

Columns and labels:
Assay type in all cases: biochemical
[1] = target: T1, ALPHA MANNOSIDASE (Canavalia ensiformis, UniProt C0HJB3); experiment: Alpha mannosidase inhibition, pH 4.5; conditions: for inhibition at 1000 µM: @ 1 mM; for inhibition at 5000 µM: @ 5 mM
T1 sequence (C0HJB3 1-562 limits assumed): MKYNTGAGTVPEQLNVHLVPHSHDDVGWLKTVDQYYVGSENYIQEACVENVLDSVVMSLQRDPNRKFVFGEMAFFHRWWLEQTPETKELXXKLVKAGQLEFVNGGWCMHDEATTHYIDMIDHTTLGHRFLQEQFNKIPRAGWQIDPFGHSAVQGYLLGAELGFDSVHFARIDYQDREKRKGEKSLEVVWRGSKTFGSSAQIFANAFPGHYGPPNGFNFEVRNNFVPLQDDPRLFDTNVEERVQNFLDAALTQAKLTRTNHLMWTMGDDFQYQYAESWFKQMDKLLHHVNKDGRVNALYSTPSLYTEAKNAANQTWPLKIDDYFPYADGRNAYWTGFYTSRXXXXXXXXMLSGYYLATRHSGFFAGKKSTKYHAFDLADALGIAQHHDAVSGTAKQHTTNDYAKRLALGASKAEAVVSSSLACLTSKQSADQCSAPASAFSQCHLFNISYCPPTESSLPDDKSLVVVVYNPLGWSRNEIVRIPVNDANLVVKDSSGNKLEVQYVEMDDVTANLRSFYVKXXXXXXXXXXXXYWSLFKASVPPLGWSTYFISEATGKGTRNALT
T1 sequence (C0HJB3 563-981 limits assumed): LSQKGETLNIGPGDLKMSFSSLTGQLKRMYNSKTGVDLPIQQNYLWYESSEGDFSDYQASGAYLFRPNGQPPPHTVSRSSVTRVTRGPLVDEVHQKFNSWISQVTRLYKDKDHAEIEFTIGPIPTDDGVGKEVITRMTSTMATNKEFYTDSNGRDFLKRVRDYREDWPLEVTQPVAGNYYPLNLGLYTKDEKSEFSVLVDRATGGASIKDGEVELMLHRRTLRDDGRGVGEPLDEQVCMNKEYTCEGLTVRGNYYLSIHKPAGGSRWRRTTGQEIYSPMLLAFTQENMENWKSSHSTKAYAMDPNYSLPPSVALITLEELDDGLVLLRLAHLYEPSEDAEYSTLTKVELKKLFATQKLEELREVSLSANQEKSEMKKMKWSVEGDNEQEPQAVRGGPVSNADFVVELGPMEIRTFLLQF

[2] = target: T1, ALPHA MANNOSIDASE; experiment: Alpha mannosidase inhibition, pH 7.4; conditions: for inhibition at 1000 µM: @ 1 mM; for inhibition at 5000 µM: @ 5 mM
[3] = target: T2, yeast α-glucosidase (Saccharomyces cerevisiae, UniProt P53341); experiment: α-Glucosidase Inhibition Assay, pH 7.4; conditions: read-out: ALPHA GLUCOSIDASE inhibition; for inhibition at 1000 µM: @ 1 mM; for inhibition at 5000 µM: @ 5 mM
T2 construct: purchased Sigma
Procedure: (§1) The glycosidase inhibition activity is determined by modifying an assay procedure described in Evans et al, Phytochemistry, 22, pp. 768-770 (1983). More particularly, yeast α-glucosidase and almond β-glucosidase activities were measured by the Evans et al method which was modified by assaying activities at pH 7.4 in N-2-hydroxyethylpiperazine-N-2-ethane sulfonic acid (HEPES) buffer, measuring in 96 well microtiter plates, and including 10% DMSO in control and test samples.
(§2) The release of p-nitrophenol from the substrate p-nitrophenylglycoside was measured spectrophotometrically in the presence and absence of test compound. Each assay included a known inhibitor of the enzyme as a standard. IC50 values were determined for compounds which inhibited the enzymes more than 50& at a 1 millimolar concentration.
To 100 ul 50 mM HEPES buffer, pH 7.4, in a microtiter plate, 20 ul test compound in DMSO (DMSO alone in control)and 40 ul (0.013 units) yeast α-glucosidase (Sigma) in HEPES buffer were added and pre-incubated at room temperature 15 minutes. 40 ul 1.25 mM p-nitro-phenyl-α-D-glucopyranoside (Sigma) in HEPES buffer, as substrate was added and the absorbance change at 405 nm was monitored in a Biotek EIA Autoreader. Absorption change was measured at 15 to 25 minutes (reaction was linear for at least 30 minutes). Each sample was tested in triplicate. IC50 values were determined from the linear portion of the log concentration vs percent inhibition curve obtained from a minimum of 3 points. Deoxynojirimycin was used as standard inhibitor.

[4] = test system: almond β-glucosidase; experiment: β-Glucosidase Inhibition Assay, pH 4.8
Procedure: as §1, §2
To 100 ul 50 mM sodium citrate buffer, pH 4.8, in a microtiter plate, 20 ul test compound in DMSO (DMSO alone in control) and 20 ul (0.017 units) β-glucosidase (Sigma) in citrate buffer were added and pre-incubated at room temperature 15 minutes. 20 ul 2.50 mM p-nitrophenyl-β-D-glucopyranside in citrate buffer was added as substrate and incubated at room temperature 20 minutes (reaction is linear for at least 30 minutes). 50 ul 0.4 M NaOH was added and the absorption change at 405 nm was determined utilizing a Biotek EIA Autoreader. Each sample was tested in triplioate. IC50 values were determined from the linear portion of the log concentration vs percent inhibition curve obtained from a minimum of 3 points. Castanospermine was used as standard inhibitor.

[5] = test system: almond β-glucosidase; experiment: β-Glucosidase Inhibition Assay, pH 7.4
Procedure: as §1, §2
To 100 ul 50 mM HEPES buffer, pH 7.4, in a microtiter plate, 20 ul test compound in DMSO (DMSO alone in control) and 40 ul (0.136 units) β-glucosidase (Sigma) in HEPES buffer were added and pre-incubated at room temperature 15 minutes. 40 ul 1.25 mM p-nitrophenylβ-D-glucopyranoside in HEPES buffer was added as substrate and the absorbance change at 405 nm was monitored utilizing a Biotek EIA Autoreader. Absorption change was measured at 15 to 25 minutes (reaction is linear for at least 30 minutes). Each sample was tested in triplicate. IC50 values were determined from the linear portion of the log concentration vs percent inhibition curve obtained from a minimum of 3 points. Castanospermine was used as standard inhibitor.

T2 sequence (P53341 whole entry): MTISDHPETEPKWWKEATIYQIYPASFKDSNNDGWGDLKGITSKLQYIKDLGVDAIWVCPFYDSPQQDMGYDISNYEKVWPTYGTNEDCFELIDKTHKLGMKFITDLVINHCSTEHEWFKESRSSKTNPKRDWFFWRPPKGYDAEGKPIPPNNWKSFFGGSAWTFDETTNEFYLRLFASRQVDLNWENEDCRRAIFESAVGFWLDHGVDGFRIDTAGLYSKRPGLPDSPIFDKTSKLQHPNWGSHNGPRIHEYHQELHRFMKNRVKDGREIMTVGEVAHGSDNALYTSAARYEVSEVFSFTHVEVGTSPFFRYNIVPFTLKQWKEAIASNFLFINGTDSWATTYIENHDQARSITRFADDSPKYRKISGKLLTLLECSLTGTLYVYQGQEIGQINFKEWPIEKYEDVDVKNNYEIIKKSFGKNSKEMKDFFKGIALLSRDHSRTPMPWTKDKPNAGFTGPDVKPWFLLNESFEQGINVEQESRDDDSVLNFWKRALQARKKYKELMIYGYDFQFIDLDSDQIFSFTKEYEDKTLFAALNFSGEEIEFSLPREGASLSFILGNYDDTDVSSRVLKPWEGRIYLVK

Row | Structure (SMILES) | inhibition at 1000 µM [1] [%] | inhibition at 5000 µM [1] [%] | inhibition at 1000 µM [2] [%] | inhibition at 5000 µM [2] [%] | inhibition at 1000 µM [3] [%] | inhibition at 5000 µM [3] [%] | BETA GLUCOSIDASE-pH 4.8 inhibition ([4]; @ 1 mM) [%] | BETA GLUCOSIDASE-pH 4.8 inhibition ([4]; @ 5 mM) [%] | BETA GLUCOSIDASE-pH 7.4 inhibition ([5]; @ 1 mM) [%] | BETA GLUCOSIDASE-pH 7.4 inhibition ([5]; @ 5 mM) [%]
1 | OC[C@H]1NC[C@H](F)[C@@H](O)[C@@H]1O [Compound 1, 1,2-dideoxy-2-fluoronojirimycin] | 4 | 5 | 19 | 11 | 24 | 64 | 6 | 25 | 11 | 25
2 | CCCCN1C[C@H](F)[C@@H](O)[C@H](O)[C@H]1CO [Compound 2, N-butyl-1,2-dideoxy-2-fluoronojirimycin] | 3 | 5 | 4 | 12 | 8 | 13 | 2 | -6 | 4 | 11
